ChEMBL document CHEMBL1139584 (Bioorg Med Chem Lett, 2005)

Columns and labels:
[1] = target: T1, Somatostatin receptor type 2 (Homo sapiens, UniProt P30874); test: Inhibition of forskolin-induced cAMP accumulation in CHO-K1 cells expressing human sst2 receptor; type: functional, cell-based
[2] = target: T1, Somatostatin receptor type 2; test: Inhibitory constant against human sst2 receptor at a dose of 10 uM
[3] = target: T2, Somatostatin receptor type 5 (Homo sapiens, UniProt P35346); test: Inhibitory constant against human sst5 receptor at a dose of 10 uM
[4] = target: T2, Somatostatin receptor type 5; test: Inhibition of forskolin-induced cAMP accumulation in CHO-K1 cells expressing human sst5 receptor; type: functional, cell-based
[5] = target: Somatostatin receptor type 1 (Homo sapiens, UniProt P30872); test: Binding affinity against human sst1 receptor at a dose of 10 uM
[6] = target: Somatostatin receptor type 3 (Homo sapiens, UniProt P32745); test: Binding affinity against human sst3 receptor at 10 uM
[7] = target: Somatostatin receptor type 4 (Homo sapiens, UniProt P31391); test: Binding affinity against human sst4 receptor at a dose of 10 uM
Somatostatin receptor type 4, sequence (P31391 whole entry): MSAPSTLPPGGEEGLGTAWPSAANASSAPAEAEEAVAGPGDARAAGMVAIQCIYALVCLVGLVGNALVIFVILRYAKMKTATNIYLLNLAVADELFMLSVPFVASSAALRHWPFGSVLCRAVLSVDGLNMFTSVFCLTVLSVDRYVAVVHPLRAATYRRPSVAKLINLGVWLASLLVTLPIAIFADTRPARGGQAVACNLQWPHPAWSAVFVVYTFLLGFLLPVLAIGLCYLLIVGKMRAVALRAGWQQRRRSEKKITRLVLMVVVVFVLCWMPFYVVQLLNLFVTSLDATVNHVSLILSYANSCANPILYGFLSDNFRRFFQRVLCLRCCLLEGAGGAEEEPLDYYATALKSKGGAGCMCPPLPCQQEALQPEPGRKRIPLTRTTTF

Somatostatin receptor type 1, sequence (P30872 whole entry): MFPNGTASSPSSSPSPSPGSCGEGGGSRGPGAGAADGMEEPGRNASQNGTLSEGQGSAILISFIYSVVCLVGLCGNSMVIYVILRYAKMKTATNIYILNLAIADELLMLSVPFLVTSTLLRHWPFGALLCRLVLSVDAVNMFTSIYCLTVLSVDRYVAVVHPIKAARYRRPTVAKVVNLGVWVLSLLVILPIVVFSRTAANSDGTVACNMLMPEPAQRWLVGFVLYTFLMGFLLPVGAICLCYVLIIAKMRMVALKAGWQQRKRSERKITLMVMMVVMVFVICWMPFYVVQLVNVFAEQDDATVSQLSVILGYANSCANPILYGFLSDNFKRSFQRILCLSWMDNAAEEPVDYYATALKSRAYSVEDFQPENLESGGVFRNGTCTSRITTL
T2 sequence (P35346 whole entry): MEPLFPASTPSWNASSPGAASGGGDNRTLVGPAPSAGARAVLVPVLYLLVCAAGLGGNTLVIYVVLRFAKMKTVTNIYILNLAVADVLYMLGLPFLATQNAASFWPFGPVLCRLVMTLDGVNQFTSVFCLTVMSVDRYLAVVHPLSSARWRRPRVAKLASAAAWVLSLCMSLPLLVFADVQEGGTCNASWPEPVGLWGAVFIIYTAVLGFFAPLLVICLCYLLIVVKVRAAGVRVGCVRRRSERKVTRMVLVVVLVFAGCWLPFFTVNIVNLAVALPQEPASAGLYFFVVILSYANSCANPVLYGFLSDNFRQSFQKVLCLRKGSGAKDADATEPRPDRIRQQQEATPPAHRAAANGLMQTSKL
Somatostatin receptor type 3, sequence (P32745 whole entry): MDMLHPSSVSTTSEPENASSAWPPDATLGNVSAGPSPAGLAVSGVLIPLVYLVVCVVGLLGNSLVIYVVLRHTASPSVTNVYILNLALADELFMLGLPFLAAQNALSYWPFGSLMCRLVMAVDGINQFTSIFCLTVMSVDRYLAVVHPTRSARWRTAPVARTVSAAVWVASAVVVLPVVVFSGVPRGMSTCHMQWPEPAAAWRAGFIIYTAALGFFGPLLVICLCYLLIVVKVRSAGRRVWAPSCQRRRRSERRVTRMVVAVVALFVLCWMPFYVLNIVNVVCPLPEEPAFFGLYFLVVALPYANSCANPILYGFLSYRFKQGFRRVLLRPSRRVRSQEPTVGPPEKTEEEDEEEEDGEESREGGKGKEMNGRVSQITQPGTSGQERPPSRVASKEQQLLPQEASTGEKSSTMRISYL
T1 sequence (P30874 whole entry): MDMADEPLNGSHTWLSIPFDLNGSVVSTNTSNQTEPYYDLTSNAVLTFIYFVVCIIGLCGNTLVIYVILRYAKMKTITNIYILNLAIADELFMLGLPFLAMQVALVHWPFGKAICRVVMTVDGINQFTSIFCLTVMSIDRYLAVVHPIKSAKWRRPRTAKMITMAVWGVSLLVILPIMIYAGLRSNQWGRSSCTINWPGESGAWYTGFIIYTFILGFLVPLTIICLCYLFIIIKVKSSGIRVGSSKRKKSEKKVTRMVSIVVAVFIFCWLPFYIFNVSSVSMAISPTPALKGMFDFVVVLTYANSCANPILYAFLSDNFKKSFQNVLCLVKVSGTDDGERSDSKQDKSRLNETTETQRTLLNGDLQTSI

NCCCCn1c(SCCc2c[nH]c3ccc(Cl)cc23)nnc1-c1ccc2ccccc2n1 showed an EC50 [1] of 6.3 nM, a Ki [2] of 5.6 nM and a Ki [3] of 2.3 nM. For the same molecule, the EC50 [4] was 52 nM.
Work on CN(C)CCCCn1c(SCCc2c[nH]c3ccccc23)nnc1-c1ccc2ccccc2c1 yielded a Ki [2] of 2800 nM and a Ki [3] of 1300 nM.
With NCCCCn1c(SCCc2c[nH]c3ccccc23)nnc1-c1cccc2cc[nH]c12 the Ki [2] was 220 nM and the Ki [3] was 64 nM.
With CCc1ccc(-c2nnc(SCCc3c[nH]c4ccccc34)n2CCCCN)cc1 the Ki [2] was 430 nM and the Ki [3] was 26 nM.
In the case of Cc1cccc2c(CCSc3nnc(-c4ccc5ccccc5n4)n3CCCCN)c[nH]c12, the EC50 [1] is reported as 22 nM, the Ki [2] is reported as 1.8 nM and the Ki [3] is reported as 2.1 nM. For the same molecule, the Ki [5] was 130 nM, the Ki [6] was 41 nM and the Ki [7] was 140 nM. For the same molecule, the EC50 [4] was 34 nM.
Molecule NCCCCn1c(SCCc2c[nH]c3ccccc23)nnc1-c1cnc2ccccc2n1 has a Ki [2] of 32 nM and a Ki [3] of 56 nM.
Cc1cccc2c(C(=O)C(C)(C)CSc3nnc(-c4ccc5ccccc5n4)n3CCCCN)c[nH]c12 showed a Ki [2] of 23 nM and a Ki [3] of 9.3 nM.
In the case of NCCCCn1c(SCCc2c[nH]c3cc(F)ccc23)nnc1-c1ccc2ccccc2n1, the EC50 [1] is reported as 14 nM, the Ki [2] is reported as 2.7 nM and the Ki [3] is reported as 1.7 nM. The Ki [5] was 58 nM, the Ki [6] was 100 nM and the Ki [7] was 74 nM. The EC50 [4] was 44 nM.
Cc1cccc2c(C(=O)CCSc3nnc(-c4ccc5ccccc5n4)n3CCCCN)c[nH]c12 was tested, and the EC50 [1] was 4 nM, the Ki [2] was 2 nM and the Ki [3] was 0.38 nM. The Ki [5] was 530 nM, the Ki [6] was 170 nM and the Ki [7] was 800 nM. The EC50 [4] was 2.3 nM.
NCCCCn1c(SCCc2c[nH]c3c(Cl)cccc23)nnc1-c1ccc2ccccc2n1 gave a Ki [2] of 4 nM, a Ki [3] of 8.4 nM and a Ki [5] of 180 nM. The Ki [6] was 97 nM and the Ki [7] was 130 nM.
In the case of NCCCCn1c(SCCc2c[nH]c3ccccc23)nnc1-c1ccc2ccccc2c1, the Ki [2] is reported as 100 nM and the Ki [3] is reported as 27 nM.
NCCCCn1c(SCCc2c[nH]c3ccccc23)nnc1-c1cccc(Br)c1 was tested, and the Ki [2] was 250 nM and the Ki [3] was 51 nM.
In the case of NCCCn1c(SCCc2c[nH]c3ccccc23)nnc1-c1ccc2ccccc2c1, the Ki [2] is reported as 640 nM and the Ki [3] is reported as 66 nM.
Work on NCCCCn1c(SCCc2c[nH]c3ccccc23)nnc1-c1ccc2cc(F)ccc2n1 yielded a Ki [2] of 12 nM and a Ki [3] of 7.8 nM.
Molecule NCCCCn1c(SCCc2c[nH]c3ccccc23)nnc1-c1cccc2ccccc12 has a Ki [2] of 150 nM and a Ki [3] of 410 nM.
For NCCCCn1c(SCCc2c[nH]c3ccccc23)nnc1-c1cc2ccccc2s1, the Ki [2] was 160 nM and the Ki [3] was 58 nM.
In the case of NCCCCCn1c(SCCc2c[nH]c3ccccc23)nnc1-c1ccc2ccccc2c1, the Ki [2] is reported as 610 nM and the Ki [3] is reported as 70 nM.
